Measured values published in patent publication US6479435B1, “Diaryl ethers and processes for their preparation and herbicidal and desiccant compositions containing them” (ISK Americas Incorporated, priority 1997, dated 2002).

How the values were obtained:
Type in all cases: in vivo
[1] = test system: field corn (Zea mays L., var. Dekalb 535, CORN); assay: Pre-emerge greenhouse test, crop damage rating; details: 14 days after application, rating scale 0-100
Method in brief: (§1)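 Seeds sown in sandy loam mix one day before track-sprayer application of compounds in acetone at 125–1000 g ai/ha (187 l/ha), then surface-watered to incorporate and bottom-watered. Visual rating 14 days after application on a 0–100 scale (0 = no damage, 100 = all plants dead).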

[2] = test system: upland rice (Oryza sp., var.Tebonnet, RICE); assay: Pre-emerge greenhouse test, crop damage rating; details: 14 days after application, rating scale 0-100
Method in brief: as §1

[3] = test system: field corn (Zea mays L., var. Dekalb 535, CORN); assay: Post-emerge greenhouse test, crop damage rating; details: 14 days after application
Method in brief: (§2)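 Compounds in acetone with 0.25% v/v non-ionic surfactant were track-sprayed at 187 l/ha over plants at the 2-3 leaf stage, at 63 to 1000 g ai/ha. Pots were bottom-watered. Injury was scored visually 14 days later on a 0-100 scale, where 0 is no damage and 100 is complete plant death.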

[4] = test system: upland rice (Oryza sp., var.Tebonnet, RICE); assay: Post-emerge greenhouse test, crop damage rating; details: 14 days after application
Method in brief: as §2

[5] = test system: soybean (Glycine max L., var. Pella 86, SOY); assay: Pre-emerge greenhouse test, crop damage rating; details: 14 days after application, rating scale 0-100
Method in brief: as §1

[6] = test system: common ragweed (Ambrosia artemisiifolia L., AMBEL); assay: Post-emerge greenhouse herbicide test, phytotoxicity rating; details: 14 days after application
Method in brief: as §2

[7] = test system: soybean (Glycine max L., var. Pella 86, SOY); assay: Post-emerge greenhouse test, crop damage rating; details: 14 days after application
Method in brief: as §2

[8] = test system: Johnsongrass (Sorghum halepense, SORHA); assay: Pre-emerge greenhouse herbicide test, phytotoxicity rating; details: 14 days after application, rating scale 0-100
Method in brief: as §1

[9] = test system: large crabgrass (Digitaria sanguinalis, DIGSA); assay: as above; details: 14 days after application, rating scale 0-100
Method in brief: as §1

[10] = test system: sicklepod (Cassia obtusifolia, CASOB); assay: as above; details: 14 days after application, rating scale 0-100
Method in brief: as §1

[11] = test system: redroot pigweed (Amaranthus retroflexus, AMARE); assay: as above; details: 14 days after application, rating scale 0-100
Method in brief: as §1

[12] = test system: common ragweed (Ambrosia artemisiifolia L., AMBEL); assay: as above; details: 14 days after application, rating scale 0-100
Method in brief: as §1

[13] = test system: ivyleaf morningglory (Ipomoea hederacea, IPOHE); assay: as above; details: 14 days after application, rating scale 0-100
Method in brief: as §1

[14] = test system: velvetleaf (Abutilon theophrasti, ABUTH); assay: as above; details: 14 days after application, rating scale 0-100
Method in brief: as §1

[15] = test system: barnyardgrass (Echinochloa crusgalli, ECHCG); assay: as above; details: 14 days after application, rating scale 0-100
Method in brief: as §1

[16] = test system: lambsquarters (Chenopodium album, CHEAL); assay: as above; details: 14 days after application, rating scale 0-100
Method in brief: as §1

[17] = test system: green foxtail (Setaria viridis, SETVI); assay: as above; details: 14 days after application, rating scale 0-100
Method in brief: as §1

[18] = test system: Johnsongrass (Sorghum halepense, SORHA); assay: Post-emerge greenhouse herbicide test, phytotoxicity rating; details: 14 days after application
Method in brief: as §2

[19] = test system: large crabgrass (Digitaria sanguinalis, DIGSA); assay: as above; details: 14 days after application
Method in brief: as §2

[20] = test system: sicklepod (Cassia obtusifolia, CASOB); assay: as above; details: 14 days after application
Method in brief: as §2

[21] = test system: redroot pigweed (Amaranthus retroflexus, AMARE); assay: as above; details: 14 days after application
Method in brief: as §2

[22] = test system: ivyleaf morningglory (Ipomoea hederacea, IPOHE); assay: as above; details: 14 days after application
Method in brief: as §2

[23] = test system: velvetleaf (Abutilon theophrasti, ABUTH); assay: as above; details: 14 days after application
Method in brief: as §2

[24] = test system: barnyardgrass (Echinochloa crusgalli, ECHCG); assay: as above; details: 14 days after application
Method in brief: as §2

[25] = test system: lambsquarters (Chenopodium album, CHEAL); assay: as above; details: 14 days after application
Method in brief: as §2

[26] = test system: green foxtail (Setaria viridis, SETVI); assay: as above; details: 14 days after application
Method in brief: as §2

## O=c1n(CCCF)nnn1-c1cc(Oc2ncccc2C(F)(F)F)c(Cl)cc1F [Compound 6-6]
[1]; 125 g ai/ha
  crop damage rating CORN: 0
[1]; 500 g ai/ha
  crop damage rating CORN: 0
[2]; 125 g ai/ha
  crop damage rating RICE: 0
[2]; 500 g ai/ha
  crop damage rating RICE: 30
[3]; 63 g al/ha
  CORN crop damage rating (0-100): 5
[3]; 500 g al/ha
  CORN crop damage rating (0-100): 15
[4]; 63 g al/ha
  RICE crop damage rating (0-100): 20
[4]; 500 g al/ha
  RICE crop damage rating (0-100): 40
[5]; 125 g ai/ha
  crop damage rating SOY: 0
[5]; 500 g ai/ha
  crop damage rating SOY: 10
[6]; 63 g al/ha
  AMBEL phytotoxicity rating (0-100): 20
[6]; 500 g al/ha
  AMBEL phytotoxicity rating (0-100): 20
[7]; 63 g al/ha
  SOY crop damage rating (0-100): 10
[7]; 500 g al/ha
  SOY crop damage rating (0-100): 50
[8]; 125 g ai/ha
  phytotoxicity rating SORHA: 30
[8]; 500 g ai/ha
  phytotoxicity rating SORHA: 95
[9]; 125 g ai/ha
  phytotoxicity rating DIGSA: 20
[9]; 500 g ai/ha
  phytotoxicity rating DIGSA: 100
[10]; 125 g ai/ha
  phytotoxicity rating CASOB: 10
[10]; 500 g ai/ha
  phytotoxicity rating CASOB: 0
[11]; 125 g ai/ha
  phytotoxicity rating AMARE: 95
[11]; 500 g ai/ha
  phytotoxicity rating AMARE: 100
[12]; 125 g ai/ha
  phytotoxicity rating AMBEL: 30
[12]; 500 g ai/ha
  phytotoxicity rating AMBEL: 60
[13]; 125 g ai/ha
  phytotoxicity rating IPOHE: 30
[13]; 500 g ai/ha
  phytotoxicity rating IPOHE: 50
[14]; 125 g ai/ha
  phytotoxicity rating ABUTH: 80
[14]; 500 g ai/ha
  phytotoxicity rating ABUTH: 100
[15]; 125 g ai/ha
  phytotoxicity rating ECHCG: 20
[15]; 500 g ai/ha
  phytotoxicity rating ECHCG: 60
[16]; 125 g ai/ha
  phytotoxicity rating CHEAL: 100
[16]; 500 g ai/ha
  phytotoxicity rating CHEAL: 100
[17]; 125 g ai/ha
  phytotoxicity rating SETVI: 95
[17]; 500 g ai/ha
  phytotoxicity rating SETVI: 100
[18]; 63 g al/ha
  SORHA phytotoxicity rating (0-100): 0
[18]; 500 g al/ha
  SORHA phytotoxicity rating (0-100): 70
[19]; 63 g al/ha
  DIGSA phytotoxicity rating (0-100): 0
[19]; 500 g al/ha
  DIGSA phytotoxicity rating (0-100): 10
[20]; 63 g al/ha
  CASOB phytotoxicity rating (0-100): 0
[20]; 500 g al/ha
  CASOB phytotoxicity rating (0-100): 30
[21]; 63 g al/ha
  AMARE phytotoxicity rating (0-100): 70
[21]; 500 g al/ha
  AMARE phytotoxicity rating (0-100): 95
[22]; 63 g al/ha
  IPOHE phytotoxicity rating (0-100): 60
[22]; 500 g al/ha
  IPOHE phytotoxicity rating (0-100): 95
[23]; 63 g al/ha
  ABUTH phytotoxicity rating (0-100): 50
[23]; 500 g al/ha
  ABUTH phytotoxicity rating (0-100): 95
[24]; 63 g al/ha
  ECHCG phytotoxicity rating (0-100): 20
[24]; 500 g al/ha
  ECHCG phytotoxicity rating (0-100): 70
[25]; 63 g al/ha
  CHEAL phytotoxicity rating (0-100): 90
[25]; 500 g al/ha
  CHEAL phytotoxicity rating (0-100): 100
[26]; 63 g al/ha
  SETVI phytotoxicity rating (0-100): 10
[26]; 500 g al/ha
  SETVI phytotoxicity rating (0-100): 40

## O=c1n(CCCF)nnn1-c1cc(Oc2ccc(C(F)(F)F)cn2)c(Cl)cc1F [Compound 6-8]
[1]; 500 g ai/ha
  crop damage rating CORN: 0
[2]; 500 g ai/ha
  crop damage rating RICE: 10
[3]; 500 g al/ha
  CORN crop damage rating (0-100): 5
[4]; 500 g al/ha
  RICE crop damage rating (0-100): 35
[5]; 500 g ai/ha
  crop damage rating SOY: 0
[6]; 500 g al/ha
  AMBEL phytotoxicity rating (0-100): 20
[7]; 500 g al/ha
  SOY crop damage rating (0-100): 60
[8]; 500 g ai/ha
  phytotoxicity rating SORHA: 80
[9]; 500 g ai/ha
  phytotoxicity rating DIGSA: 75
[10]; 500 g ai/ha
  phytotoxicity rating CASOB: 0
[11]; 500 g ai/ha
  phytotoxicity rating AMARE: 85
[12]; 500 g ai/ha
  phytotoxicity rating AMBEL: 0
[13]; 500 g ai/ha
  phytotoxicity rating IPOHE: 0
[14]; 500 g ai/ha
  phytotoxicity rating ABUTH: 80
[15]; 500 g ai/ha
  phytotoxicity rating ECHCG: 0
[16]; 500 g ai/ha
  phytotoxicity rating CHEAL: 100
[17]; 500 g ai/ha
  phytotoxicity rating SETVI: 100
[18]; 500 g al/ha
  SORHA phytotoxicity rating (0-100): 10
[19]; 500 g al/ha
  DIGSA phytotoxicity rating (0-100): 20
[20]; 500 g al/ha
  CASOB phytotoxicity rating (0-100): 40
[21]; 500 g al/ha
  AMARE phytotoxicity rating (0-100): 80
[22]; 500 g al/ha
  IPOHE phytotoxicity rating (0-100): 60
[23]; 500 g al/ha
  ABUTH phytotoxicity rating (0-100): 98
[24]; 500 g al/ha
  ECHCG phytotoxicity rating (0-100): 10
[25]; 500 g al/ha
  CHEAL phytotoxicity rating (0-100): 95
[26]; 500 g al/ha
  SETVI phytotoxicity rating (0-100): 90
